Experiments:
Assay in all cases: Cell proliferation assay (Alamar Blue)
Type in all cases: cell-based
[1] = test system: JHH1; conditions: 144 h; JHH1 liver cancer cell line; 6 days
Procedure, shortened: (§1)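 Seeding density per line set in pilot runs (500–1×10^4/well); treatment began after 4 h with a 3.16-fold, nine-point series from 30 or 100 μM, in duplicate. Six days later, 1–4 h AlamarBlue incubation, fluorescence read, inhibition relative to control wells fitted for IC50.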

[2] = test system: K562; conditions: Homo sapiens, 144 h; K562 tumor cell line; 6 days
Procedure, shortened: as §1

[3] = test system: SNU182; conditions: Homo sapiens, SNU-182, 144 h; SNU182 liver cancer cell line; 6 days
Procedure, shortened: as §1

[4] = test system: HUH6; conditions: Homo sapiens, HuH-6, 144 h; HUH6 liver cancer cell line; 6 days
Procedure, shortened: as §1

[5] = test system: JHH6; conditions: 144 h; JHH6 liver cancer cell line; 6 days
Procedure, shortened: as §1

[6] = test system: MFM-223; conditions: Homo sapiens, 144 h; MFM-223 tumor cell line; 6 days
Procedure, shortened: as §1

[7] = test system: HuTu80; conditions: Homo sapiens, 144 h; HuTu80 tumor cell line; 6 days
Procedure, shortened: as §1

[8] = test system: T.T; conditions: Homo sapiens, TT, 144 h; T.T tumor cell line; 6 days
Procedure, shortened: as §1

[9] = test system: HLF; conditions: 144 h; HLF liver cancer cell line; 6 days
Procedure, shortened: as §1

[10] = test system: MG63; conditions: Homo sapiens, MG-63, 144 h; MG63 tumor cell line; 6 days
Procedure, shortened: as §1

[11] = test system: HUH1; conditions: Homo sapiens, HuH-1, 144 h; HUH1 liver cancer cell line; 6 days
Procedure, shortened: as §1

[12] = test system: SNU449; conditions: Homo sapiens, SNU-449, 144 h; SNU449 liver cancer cell line; 6 days
Procedure, shortened: as §1

[13] = test system: SNU398; conditions: Homo sapiens, SNU-398, 144 h; SNU398 liver cancer cell line; 6 days
Procedure, shortened: as §1

[14] = test system: SNU423; conditions: Homo sapiens, SNU-423, 144 h; SNU423 liver cancer cell line; 6 days
Procedure, shortened: as §1

[15] = test system: Alexander cells; conditions: 144 h, liver cancer cell line, 6 days
Procedure, shortened: as §1

[16] = test system: HCCLM3; conditions: Homo sapiens, 144 h; HCCLM3 tumor cell line; 6 days
Procedure, shortened: as §1

[17] = test system: SNU475; conditions: Homo sapiens, SNU-475, 144 h; SNU475 liver cancer cell line; 6 days
Procedure, shortened: as §1

[18] = test system: SNU886; conditions: SNU-886, 144 h; SNU886 liver cancer cell line; 6 days
Procedure, shortened: as §1

[19] = test system: SW620; conditions: Homo sapiens, SW-620, 144 h; SW620 tumor cell line; 6 days
Procedure, shortened: as §1

[20] = test system: HLE; conditions: Homo sapiens, 144 h; HLE liver cancer cell line; 6 days
Procedure, shortened: as §1

[21] = test system: NCl-H1703; conditions: for IC50: 144 h, NCl-H1703 (lung cancer cells), 6 days
Procedure, shortened: as §1

[22] = test system: KM12; conditions: Homo sapiens, 144 h; KM12 tumor cell line; 6 days
Procedure, shortened: as §1

[23] = test system: KASUMI-1; conditions: KASUMI-1 (leukemia cells); for IC50: Homo sapiens, 144 h, 6 days
Procedure, shortened: as §1

SMILES	IC50 [1] [µM]	IC50 [2] [µM]	IC50 [3] [µM]	IC50 [4] [µM]	IC50 [5] [µM]	IC50 [6] [µM]	IC50 [7] [µM]	IC50 [8] [µM]	IC50 [9] [µM]	IC50 [10] [µM]	IC50 [11] [µM]	IC50 [12] [µM]	IC50 [13] [µM]	IC50 [14] [µM]	IC50 [15] [µM]	IC50 [16] [µM]	IC50 [17] [µM]	IC50 [18] [µM]	IC50 [19] [µM]	IC50 [20] [µM]	further results
Cc1ccc(F)c(NC(=O)Nc2ccc(-c3cccc4c3c(N)nn4C(=O)C[C@H](N)C(=O)O)cc2)c1 [Compound 10]	7.43	3.04	13.3	0.15	2.46	5.63	2.63	4.37	3.87	4.37	3.47	4.91	2.99	8.62	5.31	8.97	3.88	1.45	3.46	1.26	IC50 [21]: 21 nM; IC50 [22]: 1.47 µM; IC50 [23]: 42 nM
Cc1ccc(F)c(NC(=O)Nc2ccc(-c3cccc4c3c(N)nn4C(=O)CCCCCCCCCCCNC(=O)C[C@H](N)C(=O)N[C@@H](CCC(=O)O)C(=O)O)cc2)c1 [Compound 7]	> 100	23.9	> 100	> 100	23.6	24.1	21.1	> 100	24.4	73	21.2	31.6	18.1	> 100	98	> 100	40.7	22	21.9	36.3	IC50 [21]: 180 nM; IC50 [22]: 7.72 µM; IC50 [23]: 96 nM
Cc1ccc(F)c(NC(=O)Nc2ccc(-c3cccc4c3c(N)nn4C(=O)CCCCCNC(=O)C[C@H](N)C(=O)N[C@@H](CCC(=O)O)C(=O)O)cc2)c1 [Compound 4]	> 100	44.2	> 100	53.8	67.7	38	38.2	> 100	52.6	94.5	66.8	> 100	96.5	> 100	97.2	82	81.3	96.2	71.4	47.5	IC50 [21]: 1590 nM; IC50 [22]: 33.9 µM; IC50 [23]: 1710 nM
Cc1ccc(F)c(NC(=O)Nc2ccc(-c3cccc4c3c(N)nn4C(=O)CCCCCCCCCCCNC(=O)C[C@H](N)C(=O)N[C@@H](CCC(=O)N[C@@H](CCC(=O)N[C@@H](CCC(=O)N[C@@H](CCC(=O)O)C(=O)O)C(=O)O)C(=O)O)C(=O)O)cc2)c1 [Compound 8]	35.4	> 100	> 100	28.2	41.7	24	43.8	> 100	44.6	37.2	31.9	60.3	50.1	36.9	> 100	> 100	57.5	61	44.5	36.8	IC50 [21]: 80 nM; difference of IC50 value versus Linifanib ([21]; NCI-H1703 (lung cancer cells)): 4 times; IC50 [22]: 12.4 µM; IC50 [23]: 100 nM; difference of IC50 value versus Linifanib [23]: 10 times
Cc1ccc(F)c(NC(=O)Nc2ccc(-c3cccc4c3c(N)nn4C(=O)CCCCCNC(=O)C[C@H](N)C(=O)O)cc2)c1 [Compound 11]	> 100	33.4	> 100	46.4	54.4	26.5	23.1	> 100	49.4	77	50.6	> 100	79	> 100	79.5	74.3	76.1	> 100	60.3	55.2	IC50 [21]: 890 nM; IC50 [22]: 28.5 µM; IC50 [23]: 1210 nM

— patent US11351151B2, “Compound having anticancer activity and preparation method and application” (3D Medicines (Beijing) Co., Ltd., priority 2016, dated 2022)
